Experimental findings from US4296112A, “Cephalosporins” (Mitsui Toatsu Chemicals, Inc., priority 1979, dated 1981) are described below.

Molecules are shown by their SMILES. Converted amounts (≈) assume the structure as drawn.

What all share (assay): MIC, agar plate dilution (Referential Example 1, Table 1)
Common to all, as to assay type: cell-based

In experiment [1] the test system is Klebsiella pneumoniae (ATCC 10031). The following applies: ATCC10031, 18 h, read-out: Minimum growth inhibitory concentration (MIC). How it is done:
(§1) The antibacterial activities of the cephalosporins of this invention were measured using the sodium salts of the compounds obtained in Synthesis Examples 1 and 2. The procedure and the results are shown in Referential Example 1.
(§2) Carbenicillin sodium salt (CB-PC) and cephazoline sodum salt (CEZ) were used as controls.
(§3) The antibacterial activities of the test compounds against various Gram-positive and Gram-negative bacteria were determined in a customary manner by the minimum growth inhibitory concentration method (MIC method).
(§4) The experimental procedure was as follows:
(§5) A commercially available heart infusion agar medium (to be abbreviated HIA medium) was used as an assay medium, and a commercially available trypto-soy bouillon medium (to be abbreviated TSB) was used as a medium for the growth of test bacterial strains.
(§6) The test compound was diluted with the melted HIA medium to 100 μg/ml as a maximum concentration, and then serially diluted double. The dilutions were poured into sterilized Petri dishes respectively and allowed to cool and solidify to prepare plates containing the test compound.
(§7) The test bacterial strain was cultivated at 37° C. for 18 to 24 hours in the TSB medium. The culture broth was diluted to 50 to 500 times with a freshly prepared TSB culture medium, and one platinum loopful of the dilution was inoculated in each of the plates containing the test compound.

In a further experiment the test system is Escherichia coli (26RO3). Conditions: HIA medium plate, 37° C., 18 hours, read-out: Minimum growth inhibitory concentration (MIC). On the procedure: as §1, §2, §3, §4, §5, §6, §7
A further experiment deals with Proteus vulgaris (OX-19). The following applies: 18 h, read-out: Minimum growth inhibitory concentration (MIC). On the procedure: as §1, §2, §3, §4, §5, §6, §7
The subject of the next experiment is Proteus morganii (C-39). Conditions: Morganella morganii; HIA medium plate, 37° C., 18 hours; read-out: Minimum growth inhibitory concentration (MIC). How it is done:
as §1, §2, §3, §4, §5, §6, §7

In experiment [2] the test system is Klebsiella pneumonia (F-5089). The following applies: Klebsiella pneumoniae; HIA medium plate, 37° C., 18 hours; read-out: Minimum growth inhibitory concentration (MIC). On the procedure:
as §1, §2, §3, §4, §5, §6, §7

A further experiment relates to Proteus rettgeri (T-2). Conditions: Providencia rettgeri; HIA medium plate, 37° C., 18 hours; read-out: Minimum growth inhibitory concentration (MIC). How it is done: as §1, §2, §3, §4, §5, §6, §7
For experiment [3], the system named is Salmonella enteritidis (KB-21). Conditions: Salmonella enterica, HIA medium plate, 37° C., 18 hours, read-out: Minimum growth inhibitory concentration (MIC). On the procedure:
as §1, §2, §3, §4, §5, §6, §7

Experiment [4] relates to Pseudomonas maltophilia (F-6257). Conditions: Stenotrophomonas maltophilia; HIA medium plate, 37° C., 18 hours; read-out: Minimum growth inhibitory concentration (MIC). On the procedure:
as §1, §2, §3, §4, §5, §6, §7

In the case of `Cc1nnc(SCC2=C(C(=O)O)N3C(=O)C(NC(=O)[C@H](NC(=O)c4cnc5c(c4O)C(=O)CCC5)c4ccc(O)cc4)C3SC2)s1` (single isomer, unassigned) [Synthesis Example 2], the MIC in experiment [1] is 0.78 µg/mL (≈ 1.14 µM); with Escherichia coli (26RO3) it was 1.56 µg/mL (≈ 2.28 µM); in the experiment on Proteus vulgaris (OX-19) it was 0.78 µg/mL (≈ 1.14 µM); with Proteus morganii (C-39) it was 6.25 µg/mL (≈ 9.15 µM); in experiment [2] it was 1.56 µg/mL (≈ 2.28 µM); with Proteus rettgeri (T-2), 1.56 µg/mL (≈ 2.28 µM). Moreover, the MIC stood at 0.2 µg/mL (≈ 0.293 µM) in experiment [3] and 3.13 µg/mL (≈ 4.58 µM) in experiment [4].

On to `CC(=O)OCC1=C(C(=O)O)N2C(=O)C(NC(=O)[C@H](NC(=O)c3cnc4c(c3O)C(=O)CCC4)c3ccc(O)cc3)C2SC1` (single isomer, unassigned) [Synthesis Example 1, 7-[D-(-)-α-(4-hydroxy-5-oxo-5,6,7,8-tetrahydroquinoline-3-carboxamide)-α-(4-hydroxyphenyl)acetamido]-3-acetoxymethyl-Δ^3-cephem-4-carboxylic acid], for which the MIC in experiment [1] is 1.56 µg/mL (≈ 2.55 µM); in the experiment on Escherichia coli (26RO3), 3.13 µg/mL (≈ 5.13 µM); with Proteus vulgaris (OX-19), 1.56 µg/mL (≈ 2.55 µM); in the experiment on Proteus morganii (C-39) it was 12.5 µg/mL (≈ 20.5 µM); in experiment [2], 3.13 µg/mL (≈ 5.13 µM); in the experiment with Proteus rettgeri (T-2), 3.13 µg/mL (≈ 5.13 µM). The MIC in experiment [3] turned out to be 0.78 µg/mL (≈ 1.28 µM); in experiment [4], 0.25 µg/mL (≈ 0.409 µM).
